We go through two compounds from patent publication EP4467141A1, “PYRAZOLO-QUINOLINES AS SELECTIVE INHIBITORS OF GENOTOXIC STRESS-INDUCED IKK/NF- KB PATHWAYS FOR CANCER THERAPY” (Max-Delbrück-Centrum für Molekulare Medizin in der …, priority 2023, dated 2024).

Each structure is given as a SMILES string.

Experiment in all cases: Kinase panel study
Assay type in all cases: biochemical
What all share (settings): read-out: Percentage of inhibition; for inhibition at 1 µM: 1000nM; for inhibition at 10 µM: 10000nM

For assay [1], the target named is T1, CSNK1E (CK1 epsilon) R178C (Homo sapiens, UniProt P49674, R178C).
T1 construct: purchased Thermo Fisher Scientific
T1 sequence (P49674 1-416 R178C): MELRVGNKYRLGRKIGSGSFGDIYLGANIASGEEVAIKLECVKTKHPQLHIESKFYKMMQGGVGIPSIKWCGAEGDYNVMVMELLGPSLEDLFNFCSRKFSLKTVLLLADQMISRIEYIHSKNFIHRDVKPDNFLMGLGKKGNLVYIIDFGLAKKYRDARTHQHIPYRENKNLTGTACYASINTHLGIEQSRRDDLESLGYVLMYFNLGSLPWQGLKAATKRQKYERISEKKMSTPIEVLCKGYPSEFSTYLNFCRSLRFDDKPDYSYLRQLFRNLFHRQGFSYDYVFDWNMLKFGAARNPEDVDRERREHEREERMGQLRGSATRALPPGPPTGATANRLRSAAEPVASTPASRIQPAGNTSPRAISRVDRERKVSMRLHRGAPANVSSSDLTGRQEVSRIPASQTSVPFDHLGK
Summed up:
(§1)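 ZLyte/Adapta biochemical kinase assays, standard operating procedures; % inhibition at 1 µM or 10 µM test compound; IC50 determined in panel.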

A further assay addresses T2, JAK2 (Homo sapiens, UniProt O60674).
T2 construct: purchased Thermo Fisher Scientific
Summed up: as §1

The target of another assay is T3, MAPK3 (ERK1) (Homo sapiens, UniProt P27361).
T3 construct: purchased Thermo Fisher Scientific
Summed up: as §1

In another assay the target is T4, ADRBK2 (GRK3) (Homo sapiens, UniProt P35626).
T4 construct: purchased Thermo Fisher Scientific
T4 sequence (P35626 1-688): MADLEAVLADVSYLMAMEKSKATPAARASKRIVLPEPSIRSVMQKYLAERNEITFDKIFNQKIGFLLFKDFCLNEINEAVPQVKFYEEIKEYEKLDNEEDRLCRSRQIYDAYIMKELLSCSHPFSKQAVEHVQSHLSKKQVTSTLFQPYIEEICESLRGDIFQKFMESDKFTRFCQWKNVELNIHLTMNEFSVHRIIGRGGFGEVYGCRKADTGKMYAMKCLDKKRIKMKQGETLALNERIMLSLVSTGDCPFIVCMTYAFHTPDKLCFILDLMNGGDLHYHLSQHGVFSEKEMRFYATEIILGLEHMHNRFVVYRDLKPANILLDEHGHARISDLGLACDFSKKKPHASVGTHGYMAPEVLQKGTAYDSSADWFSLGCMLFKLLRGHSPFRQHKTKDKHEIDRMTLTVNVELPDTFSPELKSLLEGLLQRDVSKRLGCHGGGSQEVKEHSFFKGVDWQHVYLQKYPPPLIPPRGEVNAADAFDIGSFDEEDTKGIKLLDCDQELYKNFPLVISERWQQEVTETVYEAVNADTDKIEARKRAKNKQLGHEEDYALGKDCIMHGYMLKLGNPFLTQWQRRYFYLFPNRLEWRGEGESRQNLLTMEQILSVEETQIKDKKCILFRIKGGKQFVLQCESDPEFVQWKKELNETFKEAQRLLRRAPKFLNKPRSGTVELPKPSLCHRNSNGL
Summed up:
as §1

Another assay deals with T5, EGFR (ErbB1) T790M (Homo sapiens, UniProt P00533, T790M).
T5 construct: purchased Thermo Fisher Scientific
Summed up:
as §1

The target in a further assay is T6, SGK (SGK1) (Homo sapiens, UniProt O00141).
T6 construct: purchased Thermo Fisher Scientific
T6 sequence (O00141 1-431): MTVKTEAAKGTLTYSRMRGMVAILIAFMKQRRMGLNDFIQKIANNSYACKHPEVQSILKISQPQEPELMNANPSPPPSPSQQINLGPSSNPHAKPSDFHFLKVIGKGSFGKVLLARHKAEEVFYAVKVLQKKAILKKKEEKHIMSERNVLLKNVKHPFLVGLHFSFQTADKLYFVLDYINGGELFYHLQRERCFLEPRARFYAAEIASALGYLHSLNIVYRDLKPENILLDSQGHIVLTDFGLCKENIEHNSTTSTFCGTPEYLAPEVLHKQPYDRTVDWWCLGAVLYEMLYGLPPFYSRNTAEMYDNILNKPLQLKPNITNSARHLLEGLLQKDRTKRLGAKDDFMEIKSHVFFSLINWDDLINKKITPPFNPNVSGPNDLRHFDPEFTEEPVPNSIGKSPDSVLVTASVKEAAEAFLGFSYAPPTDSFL
Put shortly:
as §1

In the next assay the target is T7, EGFR (ErbB1) C797S (Homo sapiens, UniProt P00533, C797S).
T7 construct: purchased Thermo Fisher Scientific
Summed up: as §1

The target in another assay is T8, PRKCQ (PKC theta) (Homo sapiens, UniProt Q04759).
T8 construct: purchased Thermo Fisher Scientific
Summed up:
as §1

In a further assay the target is T9, LYN A (Homo sapiens, UniProt P07948).
T9 construct: purchased Thermo Fisher Scientific
Put shortly: as §1

T7 sequence (P00533 25-1210 C797S): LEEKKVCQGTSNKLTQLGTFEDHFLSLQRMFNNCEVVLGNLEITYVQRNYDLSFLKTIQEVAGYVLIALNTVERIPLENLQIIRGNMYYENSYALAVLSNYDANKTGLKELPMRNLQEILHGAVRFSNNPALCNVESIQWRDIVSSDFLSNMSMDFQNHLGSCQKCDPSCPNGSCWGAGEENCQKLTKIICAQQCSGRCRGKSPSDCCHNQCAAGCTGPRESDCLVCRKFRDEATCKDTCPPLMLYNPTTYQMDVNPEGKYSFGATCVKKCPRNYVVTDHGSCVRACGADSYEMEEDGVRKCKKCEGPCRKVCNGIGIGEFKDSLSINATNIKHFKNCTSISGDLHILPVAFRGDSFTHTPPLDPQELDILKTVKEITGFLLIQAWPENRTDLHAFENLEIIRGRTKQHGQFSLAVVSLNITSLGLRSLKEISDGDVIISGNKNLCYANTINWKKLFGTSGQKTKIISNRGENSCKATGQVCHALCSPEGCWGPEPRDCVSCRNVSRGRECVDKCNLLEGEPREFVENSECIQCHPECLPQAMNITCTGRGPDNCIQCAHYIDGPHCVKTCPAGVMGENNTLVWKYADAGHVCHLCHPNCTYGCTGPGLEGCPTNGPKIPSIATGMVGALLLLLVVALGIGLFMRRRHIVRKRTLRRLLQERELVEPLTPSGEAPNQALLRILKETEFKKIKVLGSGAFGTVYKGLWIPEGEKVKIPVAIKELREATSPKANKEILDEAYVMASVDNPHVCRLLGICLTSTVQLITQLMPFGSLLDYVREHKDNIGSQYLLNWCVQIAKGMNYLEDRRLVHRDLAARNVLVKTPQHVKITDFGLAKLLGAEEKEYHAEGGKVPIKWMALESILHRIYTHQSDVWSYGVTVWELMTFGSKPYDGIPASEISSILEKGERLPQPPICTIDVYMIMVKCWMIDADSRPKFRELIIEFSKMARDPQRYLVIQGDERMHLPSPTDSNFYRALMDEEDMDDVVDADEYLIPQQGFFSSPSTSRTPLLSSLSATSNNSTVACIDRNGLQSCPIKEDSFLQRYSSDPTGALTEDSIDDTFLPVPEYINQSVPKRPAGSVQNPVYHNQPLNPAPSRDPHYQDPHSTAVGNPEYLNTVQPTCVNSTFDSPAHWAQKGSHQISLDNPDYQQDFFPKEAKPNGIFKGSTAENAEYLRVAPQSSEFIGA
T9 sequence (P07948 whole entry): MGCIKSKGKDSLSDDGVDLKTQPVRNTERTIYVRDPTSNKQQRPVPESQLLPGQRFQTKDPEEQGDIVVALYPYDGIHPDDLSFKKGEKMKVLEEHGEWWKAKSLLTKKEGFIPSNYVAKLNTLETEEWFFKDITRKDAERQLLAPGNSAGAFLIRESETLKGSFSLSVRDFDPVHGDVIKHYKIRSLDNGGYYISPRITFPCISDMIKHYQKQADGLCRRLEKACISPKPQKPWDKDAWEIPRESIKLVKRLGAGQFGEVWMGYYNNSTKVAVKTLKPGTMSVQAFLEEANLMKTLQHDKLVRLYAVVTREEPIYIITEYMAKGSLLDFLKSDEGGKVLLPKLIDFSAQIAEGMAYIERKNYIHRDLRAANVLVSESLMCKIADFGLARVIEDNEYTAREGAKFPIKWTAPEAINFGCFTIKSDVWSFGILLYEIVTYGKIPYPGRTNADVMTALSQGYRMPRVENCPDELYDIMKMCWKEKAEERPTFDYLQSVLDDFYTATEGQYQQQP
T2 sequence (O60674 whole entry): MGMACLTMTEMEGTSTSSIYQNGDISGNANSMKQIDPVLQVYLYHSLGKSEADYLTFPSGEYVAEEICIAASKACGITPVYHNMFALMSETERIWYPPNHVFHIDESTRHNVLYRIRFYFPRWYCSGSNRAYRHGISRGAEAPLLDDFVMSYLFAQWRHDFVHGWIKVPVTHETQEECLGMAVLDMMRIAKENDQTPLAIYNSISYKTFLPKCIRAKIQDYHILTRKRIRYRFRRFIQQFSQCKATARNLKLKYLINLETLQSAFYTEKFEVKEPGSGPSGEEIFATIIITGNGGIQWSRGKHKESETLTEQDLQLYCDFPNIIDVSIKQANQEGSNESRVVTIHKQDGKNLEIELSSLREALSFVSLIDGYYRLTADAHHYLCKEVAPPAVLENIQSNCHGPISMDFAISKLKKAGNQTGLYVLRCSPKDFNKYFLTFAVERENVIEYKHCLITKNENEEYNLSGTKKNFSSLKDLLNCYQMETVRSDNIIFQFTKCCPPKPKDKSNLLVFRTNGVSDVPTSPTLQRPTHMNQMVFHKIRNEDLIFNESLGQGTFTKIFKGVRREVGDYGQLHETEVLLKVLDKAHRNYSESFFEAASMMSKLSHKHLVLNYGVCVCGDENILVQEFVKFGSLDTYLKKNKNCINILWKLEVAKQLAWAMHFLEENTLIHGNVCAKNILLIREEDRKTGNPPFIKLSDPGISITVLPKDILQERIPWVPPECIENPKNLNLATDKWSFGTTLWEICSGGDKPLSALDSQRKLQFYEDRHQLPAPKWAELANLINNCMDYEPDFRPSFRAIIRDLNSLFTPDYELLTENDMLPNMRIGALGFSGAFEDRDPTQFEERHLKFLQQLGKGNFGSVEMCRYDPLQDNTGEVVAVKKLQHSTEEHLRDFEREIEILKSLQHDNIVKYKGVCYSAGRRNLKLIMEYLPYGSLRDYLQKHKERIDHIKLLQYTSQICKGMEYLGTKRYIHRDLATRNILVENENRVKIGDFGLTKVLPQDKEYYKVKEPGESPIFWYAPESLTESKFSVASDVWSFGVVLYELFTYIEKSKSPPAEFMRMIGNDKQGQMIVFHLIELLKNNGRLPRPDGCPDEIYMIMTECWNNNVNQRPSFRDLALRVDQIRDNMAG
T3 sequence (P27361 whole entry): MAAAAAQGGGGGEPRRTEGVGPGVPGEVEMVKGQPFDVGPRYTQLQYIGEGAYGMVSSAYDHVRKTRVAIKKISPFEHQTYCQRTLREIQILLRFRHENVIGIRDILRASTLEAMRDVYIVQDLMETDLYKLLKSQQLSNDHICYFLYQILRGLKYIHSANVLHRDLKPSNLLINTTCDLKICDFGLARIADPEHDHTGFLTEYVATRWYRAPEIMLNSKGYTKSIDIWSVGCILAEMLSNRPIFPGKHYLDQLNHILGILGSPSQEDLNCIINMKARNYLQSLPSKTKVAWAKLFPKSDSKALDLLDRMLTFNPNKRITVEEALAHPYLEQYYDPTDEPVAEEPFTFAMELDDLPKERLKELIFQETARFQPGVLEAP
T8 sequence (Q04759 whole entry): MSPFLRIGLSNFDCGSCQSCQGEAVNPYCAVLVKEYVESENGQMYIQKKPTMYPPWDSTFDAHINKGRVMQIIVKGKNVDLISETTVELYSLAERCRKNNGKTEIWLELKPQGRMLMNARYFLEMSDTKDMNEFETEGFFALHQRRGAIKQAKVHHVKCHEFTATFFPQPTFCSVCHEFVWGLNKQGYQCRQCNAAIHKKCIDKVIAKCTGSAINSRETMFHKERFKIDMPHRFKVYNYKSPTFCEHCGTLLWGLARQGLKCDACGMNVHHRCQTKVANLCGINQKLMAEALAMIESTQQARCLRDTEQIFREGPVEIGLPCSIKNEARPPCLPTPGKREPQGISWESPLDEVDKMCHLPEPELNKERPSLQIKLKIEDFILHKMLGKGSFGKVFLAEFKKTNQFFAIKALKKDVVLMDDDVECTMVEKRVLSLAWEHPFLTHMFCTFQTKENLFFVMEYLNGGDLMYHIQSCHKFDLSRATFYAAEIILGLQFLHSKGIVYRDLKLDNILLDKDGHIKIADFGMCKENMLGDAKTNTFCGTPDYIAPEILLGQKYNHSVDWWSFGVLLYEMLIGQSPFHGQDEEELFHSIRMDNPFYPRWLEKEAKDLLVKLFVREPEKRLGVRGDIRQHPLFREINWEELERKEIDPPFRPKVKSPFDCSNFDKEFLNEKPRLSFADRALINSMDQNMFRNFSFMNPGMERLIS
T5 sequence (P00533 25-1210 T790M): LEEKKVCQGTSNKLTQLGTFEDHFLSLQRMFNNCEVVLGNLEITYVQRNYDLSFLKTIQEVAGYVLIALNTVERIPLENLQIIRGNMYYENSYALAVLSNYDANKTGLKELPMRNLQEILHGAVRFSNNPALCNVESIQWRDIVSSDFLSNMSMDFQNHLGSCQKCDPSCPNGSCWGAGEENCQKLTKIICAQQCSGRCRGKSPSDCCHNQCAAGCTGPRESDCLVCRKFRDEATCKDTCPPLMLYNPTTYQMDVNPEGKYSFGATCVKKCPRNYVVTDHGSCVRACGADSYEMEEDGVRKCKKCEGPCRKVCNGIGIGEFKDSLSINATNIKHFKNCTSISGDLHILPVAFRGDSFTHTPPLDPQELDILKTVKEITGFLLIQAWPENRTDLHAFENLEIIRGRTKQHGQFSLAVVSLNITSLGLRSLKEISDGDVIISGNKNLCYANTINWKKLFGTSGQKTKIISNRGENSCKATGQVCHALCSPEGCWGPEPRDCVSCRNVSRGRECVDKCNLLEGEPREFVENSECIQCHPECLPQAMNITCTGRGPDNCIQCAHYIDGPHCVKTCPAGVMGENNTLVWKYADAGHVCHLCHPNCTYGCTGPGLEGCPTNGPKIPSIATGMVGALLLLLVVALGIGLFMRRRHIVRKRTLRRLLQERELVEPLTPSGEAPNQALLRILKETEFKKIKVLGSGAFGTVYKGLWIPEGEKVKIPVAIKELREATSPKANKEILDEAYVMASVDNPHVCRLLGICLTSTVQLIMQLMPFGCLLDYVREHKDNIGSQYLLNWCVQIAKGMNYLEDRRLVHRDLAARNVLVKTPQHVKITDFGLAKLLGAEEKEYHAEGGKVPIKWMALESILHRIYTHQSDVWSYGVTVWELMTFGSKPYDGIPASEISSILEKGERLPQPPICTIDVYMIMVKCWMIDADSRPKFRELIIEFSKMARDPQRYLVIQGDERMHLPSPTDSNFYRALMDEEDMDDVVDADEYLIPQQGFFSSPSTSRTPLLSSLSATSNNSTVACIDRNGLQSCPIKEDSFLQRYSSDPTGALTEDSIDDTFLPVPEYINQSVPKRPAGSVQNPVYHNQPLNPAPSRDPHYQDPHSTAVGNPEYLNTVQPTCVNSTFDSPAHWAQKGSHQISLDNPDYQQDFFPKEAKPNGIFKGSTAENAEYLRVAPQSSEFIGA

As for `COc1ccc2c(c1OC)c(=O)n1c3ccc(O)cc3c3ccnc2c31` [MW01, 5-Hydroxy-10,11-dimethoxy-9H-benzo[c]indolo[3,2,1-ij][1,5]naphthyridin-9-one], the inhibition at 1 µM is 23% in assay [1]; 15% on JAK2; 14% at MAPK3 (ERK1); 0% at ADRBK2 (GRK3); 8% on EGFR (ErbB1) T790M; -4% at SGK (SGK1). The inhibition at 1 µM at EGFR (ErbB1) C797S is 4%; on PRKCQ (PKC theta), 4%; at LYN A it was 5%. The inhibition at 10 µM in [1] came out at 64%; at JAK2, 48%; on MAPK3 (ERK1) it was 4%; on ADRBK2 (GRK3) it was 5%; on EGFR (ErbB1) T790M, 19%; at SGK (SGK1) it was 15%. The inhibition at 10 µM turned out to be 11% on EGFR (ErbB1) C797S, 21% on PRKCQ (PKC theta) and 18% at LYN A.

On to `COc1ccc2cc3c(N)nn(C(=O)c4cccc(N(C)C)c4)c3nc2c1` [MW05, (3-Amino-7-methoxypyrazolo[3,4-b]quinolin-1-yl)-[3-(dimethylamino)phenyl]methanone], for which the inhibition at 1 µM is 0% in assay [1]; -3% on JAK2; 14% on MAPK3 (ERK1); 2% on ADRBK2 (GRK3); 4% at EGFR (ErbB1) T790M; -2% at SGK (SGK1). Also, the inhibition at 1 µM at EGFR (ErbB1) C797S is 1%; on PRKCQ (PKC theta), 2%; on LYN A it was 1%. Further, the inhibition at 10 µM is 6% in assay [1]; -20% on JAK2; 11% on MAPK3 (ERK1); -3% at ADRBK2 (GRK3); 0% at EGFR (ErbB1) T790M; -12% on SGK (SGK1). The inhibition at 10 µM on EGFR (ErbB1) C797S is -14%; at PRKCQ (PKC theta), -15%; at LYN A, -6%.

Usually inhibition stands for the relative decrease from the control value, in per cent.
